Experimental data taken from patent publication US20250134867A1, “METHOD FOR MODULATING LIPID METABOLISM, AMELIORATING NON-ALCOHOLIC FATTY LIVER DISEASE AND METABOLIC SYNDROME BY USING 6-METHOXYBENZOXAZOLINONE” (Taichung District Agricultural Research and Extension …, priority 2023, published 2025).

Columns and labels:
Type in all cases: in vivo
[1] = system: HFD-induced obese C57BL/6J mice; assay: Fasting blood glucose, IPGTT and insulin resistance in HFD-induced obese mice; conditions: for insulin resistance index HOMA-IR / fasting insulin concentration (insulin expression): 12 weeks; for insulin resistance index HOMA-IR: compared with the HFD group; for fasting insulin concentration (insulin expression): serum; for fasting blood glucose: since the second week, 16 h fasting; for AUC of IPGTT: week 12, glucose 1.0 g/kg i.p., vs HFD group
Text: The animals used in the examples are described below. 5-week-old male C57BL/6J mice were purchased from The National Laboratory Animal Center, Taipei, Taiwan and were maintained in a temperature-controlled room on a 12-h light-dark cycle. They were housed with four per cage and had free access to food and drinking water. Mice fed with a standard diet and adapted to the environment for 1 week were subsequently divided randomly into five groups. The ND group (n=8) continued on the same diet, whereas the other four groups (n=8 per group) were switched to the HFD (494 kcal/100 g, 45% energy as fat; TestDiet Inc., USA). Among the four HFD groups, three groups started to receive CX at 10 mg/kg/day (CX10 group), CX at 30 mg/kg/day (CX30 group), and epigallocatechin gallate (EGCG) (Sigma, Inc., USA) at 30 mg/kg/day (EGCG30 group) by oral gavage. EGCG was suspended in 0.5% methylcellulose solution for oral administration. Food consumption and weight gain were measured daily and weekly, respectively. After 12 weeks, all mice were sacrificed. Serum samples, liver tissue, epididymis adipose tissue and feces were harvested for further analysis. The experimental protocol was approved by the Animal Research Committee of the National Yang Ming Chiao Tung University (IACUC no. 1091013), and all procedures followed The Guide for the Care and Use of Laboratory Animals (NIH publication, 85-23, revised 1996) and the guidelines of the Animal Welfare Act, Taiwan. The procedure regarding blood glucose and intraperitoneal glucose tolerance test (IPGTT) is as follows. After a 16 h overnight fasting period, whole-blood glucose was measured with a glucose analyzer ([…], Taiwan). An enzymatic assay was used to measure the serum insulin concentration (Cisbio, USA). Intraperitoneal glucose tolerance tests (IPGTTs) were performed in all mice 12 weeks after the start of the study. Mice fasted for 16 h were injected intraperitoneally with glucose 1.0 g/kg body weight, blood glucose levels were measured in tail vain blood at 0, 30, 60, 90, 120 and 150 min.

[2] = system: HFD-induced obese C57BL/6J mice; assay: Body weight gain, food intake and food efficiency ratio in HFD-induced obese mice; conditions: vs HFD group; for food efficiency ratio (FER): 12 weeks; for body weight gain: HFD mice, oral gavage 12 weeks, CX 10 and 30 mg/kg/day, EGCG 30 mg/kg/day
Text: (§1) To determine the effect of CX (Sigma, Inc., USA) on obesity and non-alcoholic fatty liver disease (NAFLD) in vivo, we established an experimental approach using HFD-induced obese C57BL/6J mice. CX was suspended in 0.5% methylcellulose solution for oral administration. The animals used in the examples are described below. 5-week-old male C57BL/6J mice were purchased from The National Laboratory Animal Center, Taipei, Taiwan and were maintained in a temperature-controlled room on a 12-h light-dark cycle. They were housed with four per cage and had free access to food and drinking water. Mice fed with a standard diet and adapted to the environment for 1 week were subsequently divided randomly into five groups. The ND group (n=8) continued on the same diet, whereas the other four groups (n=8 per group) were switched to the HFD (494 kcal/100 g, 45% energy as fat; TestDiet Inc., USA). Among the four HFD groups, three groups started to receive CX at 10 mg/kg/day (CX10 group), CX at 30 mg/kg/day (CX30 group), and epigallocatechin gallate (EGCG) (Sigma, Inc., USA) at 30 mg/kg/day (EGCG30 group) by oral gavage. EGCG was suspended in 0.5% methylcellulose solution for oral administration. Food consumption and weight gain were measured daily and weekly, respectively. After 12 weeks, all mice were sacrificed. Serum samples, liver tissue, epididymis adipose tissue and feces were harvested for further analysis. The experimental protocol was approved by the Animal Research Committee of the National Yang Ming Chiao Tung University (IACUC no. 1091013), and all procedures followed The Guide for the Care and Use of Laboratory Animals (NIH publication, 85-23, revised 1996) and the guidelines of the Animal Welfare Act, Taiwan.

[3] = system: HFD-induced obese C57BL/6J mice; assay: Fat deposition (eWAT) and serum lipid levels in HFD-induced obese mice; conditions: 12 weeks oral; for HFD-induced increase in the mass of eWAT / serum LDL-C / serum HDL cholesterol (HDL-C) / serum total cholesterol (TC) / serum triglyceride (TG): HFD mice; for HFD-induced increase in the mass of eWAT: CX 10 and 30 mg/kg/day, EGCG 30 mg/kg/day; for serum LDL-C: calculated as (TC)-(HDL-C)-(TG/5); for serum HDL cholesterol (HDL-C) / serum total cholesterol (TC) / serum triglyceride (TG): vs HFD group; for adipocyte diameters: compared with the HFD group
Text: as §1, with “The” for “To determine the effect of CX (Sigma, Inc., USA) on obesity and non-alcoholic fatty liver disease (NAFLD) in vivo, we established an experimental approach using HFD-induced obese C57BL/6J mice. CX was suspended in 0.5% methylcellulose solution for oral administration. The”, “Taiwan. The procedure regarding immunohistochemical tissue characterization is as follows. During dissection of the mice, epididymis adipose tissue and liver were isolated, weighed, and subsequently fixed in 10% paraformaldehyde in PBS. After overnight fixation, tissues were embedded in paraffin for hematoxylin and eosin (H&E) staining. All specimens were observed microscopically (Carl Zeiss Inc., Germany) at 200× magnification. […] The procedure regarding biochemical characterization is as follows. The serum triglyceride (TG), total cholesterol (TC), high-density lipoprotein-cholesterol (HDL-C), glutamic oxaloacetic transaminase (GOT), glutamic pyruvic transaminase (GPT), albumin (ALB), uric acid (UA), and creatinine (CRE) levels were measured using enzymatic assay kits with a FUJI DRI-CHEM analyzer (Fujifilm, Tokyo, Japan). The LDL-C level was calculated as [(TC)-(HDL-C)-(TG/5)].” for “Taiwan.”

| Compound | insulin resistance index HOMA-IR ([1]; 10 mg/kg/day oral) | fasting insulin concentration (insulin expression) ([1]; 10 mg/kg/day oral) | fasting blood glucose ([1]; 10 mg/kg/day oral) | AUC of IPGTT ([1]; 10 mg/kg/day oral) | insulin resistance index HOMA-IR ([1]; 30 mg/kg/day oral) | fasting insulin concentration (insulin expression) ([1]; 30 mg/kg/day oral) | fasting blood glucose ([1]; 30 mg/kg/day oral) | AUC of IPGTT ([1]; 30 mg/kg/day oral) | food efficiency ratio (FER) ([2]; 10 mg/kg/day oral gavage) | food efficiency ratio (FER) ([2]; 30 mg/kg/day oral gavage) | body weight gain [2] | HFD-induced increase in the mass of eWAT [3] | serum LDL-C [3] | serum HDL cholesterol (HDL-C) [3] | serum total cholesterol (TC) [3] | serum triglyceride (TG) [3] | adipocyte diameters [3] |
| --- | --- | --- | --- | --- | --- | --- | --- | --- | --- | --- | --- | --- | --- | --- | --- | --- | --- |
| COc1ccc2[nH]c(=O)oc2c1 [CX, 6-methoxybenzoxazolinone] | significantly lower | significantly lower than that of the HFD group | stable and significantly lower than the HFD group | significantly decreased | significantly lower | significantly lower than that of the HFD group | stable and significantly lower than the HFD group | significantly decreased | greatly reduced | greatly reduced | significantly prevented body weight gain | ameliorated | somewhat ameliorated | did not differ significantly from the HFD group | significantly lower than the HFD group | significantly lower than the HFD group | lower cell diameters and smaller cell size |
| O=C(O[C@@H]1Cc2c(O)cc(O)cc2O[C@@H]1c1cc(O)c(O)c(O)c1)c1cc(O)c(O)c(O)c1 [EGCG, epigallocatechin gallate, reference compound] |  |  |  |  |  |  | stable and significantly lower than the HFD group |  |  |  | significantly prevented body weight gain | ameliorated | somewhat ameliorated | did not differ significantly from the HFD group | significantly lower than the HFD group | significantly lower than the HFD group | lower cell diameters and smaller cell size |
